Results reported in paper PMC9887192, “Lethal activity of BRD4 PROTAC degrader QCA570 against bladder cancer cells” (Frontiers in Chemistry, 2023).

Molecular target: BRD4 (Homo sapiens, UniProt O60885)
Assay: PROTAC degradation in bladder cancer cells by Western blot; blocked by JQ1, MG132 and MLN4924
Type: cell-based

DC50: ~1 nM
Structure (SMILES): Cc1nnc2n1-c1sc(C#Cc3cnn(CCCC#Cc4cccc5c4CN(C4CCC(=O)NC4=O)C5=O)c3)c(Cc3ccccc3)c1COC2 (stereo not shown) [QCA570]
